Data from US20030165919A1, “Method for the analysis of exogenic and endogenic cell activiation based on measuring the aggregation of receptors” (priority 2000, published 2003).

Assays:
CD11b and CD14 = molecular target: T1, CD11b and CD14 (Homo sapiens, UniProt P08571); experiment: FRET flow cytometry: co-assembly of CD11b and CD14 on monocytes; assay type: cell-based; conditions: for co-assembly of CD11b and CD14 (energy transfer between monoclonal antibodies): human monocytes in whole blood, stimulation with the substance alone, 37° C. 15 minutes
T1 construct: endogenous in cells; host or cells: human monocytes in heparinised whole blood (healthy donors and patients)
T1 sequence (P08571 20-345 limits assumed): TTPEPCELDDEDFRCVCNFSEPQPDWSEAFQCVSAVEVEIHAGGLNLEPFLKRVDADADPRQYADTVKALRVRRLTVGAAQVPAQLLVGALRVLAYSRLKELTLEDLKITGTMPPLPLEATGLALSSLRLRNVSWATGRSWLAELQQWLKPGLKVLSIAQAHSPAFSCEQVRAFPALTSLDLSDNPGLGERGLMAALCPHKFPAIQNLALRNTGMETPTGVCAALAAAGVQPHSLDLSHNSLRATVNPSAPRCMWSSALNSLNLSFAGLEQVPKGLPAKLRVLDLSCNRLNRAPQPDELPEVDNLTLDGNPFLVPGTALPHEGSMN
Experimental: (§1) Aliquots […] of whole blood were incubated with the following stimulatory compounds at 37° C. for 15 minutes: LPS of Salmonella minnesota (0.1-10 nM, Mw 10 kDa), ceramide (primarily stearic acid and nervonic acid) and sulfogalactosyl ceramide (SG-cer, […]), both of which tested LPS free in the LAL assay (Cer, 1 nM-5.5 mM), lysophosphatidyl choline (lyso-PC, 10 mM), phorbol-12-myristate-13-acetate (PMA, 1 mM), N-formyl-L-methionyl-L-leucyl-L-phenyl alamine (fMLP, 1 mM), PE, PC, PI and PS liposomes (10 mm) which had been prepared as described above. All reagents were obtained from Sigma. In addition, the cells were stimulated with HPS70 (7 nM), dHSP70 (7 nM) and SG-cer+dHSP70 (40 nM+7 nM). After incubation, the cells were washed with cold PBS containing 0.1% of NaN3. The synthetic LPS antagonist lipid IVa (“compound-406”, 1-400 ng/ml) and lipid A derived from E. coli (1-100 ng/ml) were made available by courtesy of Dr. S. Kusumoto. The cells were pre-incubated with the LPS antagonist at 37° C. for 15 minutes and then stimulated with LPS at the same temperature (without washing).
Whole blood cells which had been stimulated or washed ex vivo […] were incubated on ice for 15 minutes with saturation concentrations of monoclonal fluorochrom-conjugated or biotinylated antibodies. The monoclonal antibodies CD11a (clone 25.3.1), CD16a (clone 3G8). CD18 (clone 7E4), CD14 (clone RMO52), CD33 (clone My9-RD1). CD81 (clone Js64) were obtained as R-phyco-erythrine (R-PE) conjugates and CD25 (clone B1.49.9) in biotinylated form from Coulter/Immunotech (Krefeld, Germany). CD11b (clone d12), CD11c (clone S-HCL-3), CD36 (clone CB38), CD47 (clone B6H12), CD81 (clone JS-81) and (Cd55 (clone IA10) in biotinylated form and Streptavidin-R-PE were purchased from Becton/Dickinson/Pharningen (Heidelberg, Germany) CD18 (clone IB4) in biontinylated form and CD40 (clone EA-5) as R-PE conjugate were obtained from Alexis (Grünberg, Germany) and CD14 (clones ×8 and Uchml) and CD3 (clone Cris-7) in biotinylated form and Streptavidin-Cy5 (Sa-Cy5) from Dianova (Hamburg, Germany), CD32 (clone C1KM5) and CD64 (clone 10.1) were obtained as R-PE conjugates from Caltag (Burlingame, U.S.A.) and CD91 (clone 8G1) in biotinylated form from Proen (Heidelberg, Germany). A monoclonal anti-TLRA antibody (clone HTA125) was kindly provided by Dr. Kensuke. Since no energy transfer between the antibodies directed against the CD14/CD11a and CD14/CD11c pairs was detectable either on resting or on stimulated cells, these antibody combinations were not characterised further.
Lysis of erythrocytes and washing were carried out as described (Rothe et al., Thromb. Vasc. Biol. 16 (1996), 1437-1447). After the last washing step, the samples were divided and part of each sample incubated with a saturating amount of SA-Cy5 on ice for 15 minutes and washed before measuring.
For energy transfer experiments, […] aliquots of whole blood were treated with cholesterol/methyl cyclodextrine (C/C) (100 mg/ml/4.6 mg/ml) or 2-hydroxypropyl-β-cyclodextrine (0.15 mg/ml) at 37° C. for 30 minutes and then stimulated further with LPS (4 nM) or ceramide (40 nM) as described above. The energy transfer between CD14 and CD11b was measured.
A “FACSCalibur” flow cytometer (Becton Dickinson) equipped with an air-cooled 15 mW argon laser (excitation wavelength 488 nm), a diode laser (excitation wavelength […]) and standard filters [channel 1 (FITC): 530/30 nm band pass filter; channel 2 (R-PE being used as donor dye); 585/47 nm band pass filter; channel 3 (PerCP): pass having a length of >670 nm; and channel 4 (Cy5being used as recipient dye): 661/16 nm bad pass filter] was used. The Cellquest software (Becton Dickinson) was used for the measurements. […] Measurement was conducted without compensation. 50,000 leukocytes were required in the “list” modus, forward scattering (FSC) being used as a trigger signal. […]

[1] = molecular target: T2, receptor cluster comprising CD14 (Homo sapiens, UniProt P08571); experiment: FRET with a series of antibody pairs: receptor cluster comprising CD14 on monocytes; assay type: cell-based; conditions: stimulation of the cells as control
T2 construct: endogenous in cells; host or cells: human monocytes in whole blood
T2 sequence (P08571 20-345 limits assumed): T1 sequence (P08571 20-345 limits assumed)
Experimental: as §1
Whole blood cells which had been stimulated or washed ex vivo […] were incubated on ice for 15 minutes with saturation concentrations of monoclonal fluorochrom-conjugated or biotinylated antibodies. The monoclonal antibodies CD11a (clone 25.3.1), CD16a (clone 3G8). […]

human CD14 = molecular target: T3, human CD14 (Homo sapiens, UniProt P08571); experiment: Binding of [14C]N-palmitoyl-D-sphingosine to CHO cells transfected with human CD14
T3 construct: expressed in transfected cells; host or cells: CHO cells (control: pPol-DHFR vector)
T3 sequence (P08571 20-345): T1 sequence (P08571 20-345 limits assumed)
Experimental: d. CHO cells transfected with human CD14 (-unlabelled ceramide)(●)+unlabelled ceramide (∘)) or with a pPol-DHFR vector (-unlabelled ceramide (▪)+unlabelled ceramide (□)) were incubated with the specified concentrations of [^14C]N-palmitoyl-D-sphingosine and the ^14C bound to the cells determined. Each data point represents the mean value ± SD of three measurements.
Cells transfected with human CD14 or the pPol-DHFR vector were grown as described recently (Stelter et al., Eur. J. Biochem. 238 (1996), 457-464). The cells were trypsinated, washed twice with PBS and then taken up in PBS containing 10% of human serum. CHO cells (4×10^5) were pre-incubated on ice in the presence of a 50 fold excess of unlabelled N-palmitoyl-D-sphingosine (Sigma) for 15 minutes in a final volume of […]. After that [^14C]N-palmitoyl-D-sphingosine (American Radiolabeled Chemicals Inc., St. Louis, Mo., U.S.A.) was added and the cells incubated for another 15 minutes. In order to remove non-bound activity, the cells were washed twice and then transferred to a fresh Eppendorf vessel. After repeated washing, the pellet was dissolved in […] of 1% SDS, 10 mM EDTA and then added to 3 ml of scintillation liquid. The amount of cell-bound radioactivity was determined by measuring the scintillation of the liquid.

phosphatidyl choline [PC]
co-assembly of CD11b and CD14 (energy transfer between monoclonal antibodies) (CD11b and CD14): Only lipoteichoic acid, PE and PI induced co-assembly

lyso-phosphatidyl choline [lysoPC]
co-assembly of CD11b and CD14 (energy transfer between monoclonal antibodies) (CD11b and CD14): Only lipoteichoic acid, PE and PI induced co-assembly

phosphatidyl ethanol amine [PE]
co-assembly of CD11b and CD14 (energy transfer between monoclonal antibodies) (CD11b and CD14): induced co-assembly between CD11b and CD14

phosphatidyl inositol [PI]
co-assembly of CD11b and CD14 (energy transfer between monoclonal antibodies) (CD11b and CD14): induced co-assembly between CD11b and CD14

CSCC[C@H](NC=O)C(=O)N[C@@H](CC(C)C)C(=O)N[C@@H](Cc1ccccc1)C(=O)O [fMLP, N-formyl-L-methionyl-L-leucyl-L-phenyl alamine]
co-assembly of CD11b and CD14 (energy transfer between monoclonal antibodies) (CD11b and CD14): neither fMLP or PMA showed any effect | energy transfer between any of the antibody pairs [1]: did not result in any significant energy transfer

phosphatidyl serine [PS]
co-assembly of CD11b and CD14 (energy transfer between monoclonal antibodies) (CD11b and CD14): Only lipoteichoic acid, PE and PI induced co-assembly

sulfogalactosyl ceramide [SG-cer]
co-assembly of CD11b and CD14 (energy transfer between monoclonal antibodies) (CD11b and CD14): Only lipoteichoic acid, PE and PI induced co-assembly

lipid A
co-assembly of CD11b and CD14 (energy transfer between monoclonal antibodies) (CD11b and CD14): induced the co-assembly of CD11b and CD14

CCCCCCCCCCCCC/C=C/[C@@H](O)[C@H](CO)N[14C](=O)CCCCCCCCCCCCCCC [[^14C]-N-palnitoyl-D-sphingosine, [^14C]N-palmitoyl-D-sphingosine]
inhibition of binding by 50-fold excess of unlabelled ligand (human CD14; CD14-transfected CHO fibroblasts): could be inhibited by adding a 50-fold excess of unlabelled ligand | binding to CD14-transfected CHO fibroblasts compared to vector-transfected cells (human CD14; cell-bound 14C, PBS with 10% human serum, on ice 15 minutes): much higher when compared to vector-transfected cells

CCCCCCCCCCCCCC(=O)O[C@@H]1[C@@H](C)[C@@]2(O)[C@@H](C=C(CO)C[C@]3(O)C(=O)C(C)=C[C@@H]23)[C@@H]2C(C)(C)[C@]12OC(C)=O [PMA, phorbol-12-myristate-13-acetate]
co-assembly of CD11b and CD14 (energy transfer between monoclonal antibodies) (CD11b and CD14): neither fMLP or PMA showed any effect | energy transfer between any of the antibody pairs [1]: did not result in any significant energy transfer

dHSP70: HSP70 delipidated in ethanol/diethyl ether
co-assembly of CD11b and CD14 (energy transfer between monoclonal antibodies) (CD11b and CD14): does not induce any receptor complex

CCCCCCCCCCC[C@@H](O)CC(=O)N[C@H]1[C@H](OC[C@H]2O[C@H](OP(=O)(O)O)[C@H](NC(=O)C[C@H](O)CCCCCCCCCCC)[C@@H](OC(=O)C[C@H](O)CCCCCCCCCCC)[C@@H]2O)O[C@H](CO)[C@@H](OP(=O)(O)O)[C@@H]1OC(=O)C[C@H](O)CCCCCCCCCCC [compound-406]
effect on LPS-induced co-association between CD14 and CD11b (CD11b and CD14; antagonist given in vitro 15 minutes before stimulation, LPS 4 nM + c-406 400 ng/ml): reduced the LPS- or ceramide-induced co-association between CD14 and CD11b significantly | effect on ceramide-induced co-association between CD14 and CD11b (CD11b and CD14; antagonist given in vitro 15 minutes before stimulation, ceramide 10 nM + c-406 100 ng/ml): reduced the LPS- or ceramide-induced co-association between CD14 and CD11b significantly | co-assembly of CD11b and CD14 (energy transfer between monoclonal antibodies) (CD11b and CD14): did not induce co-assembly of the receptors CD14 and CD11b
